From patent US20260167622A1, “PAN-KRAS DEGRADING AGENT, AND PREPARATION METHOD THEREFOR AND USE THEREOF” (LEADINGTAC PHARMACEUTICAL (SHAOXING) CO., LTD., priority 2022, published 2026)

Tests used:
KRAS-G12D mutant cells = conditions: background, J. Med. Chem. 2022, 65, 3923-3942; cited from earlier work
Human KRAS G12V = target: T1, Human KRAS G12V (Homo sapiens, UniProt P01116, G12V); assay: KRAS-G12V/GTP binding assay (HTRF kit); conditions: 25° C., 1 h
T1 construct: purchased PerkinElmer
Description: Test Example 2: KRAS G12V Binding Assay
In this method, the inhibitory effects of the compounds on the binding of KRAS G12V to GTP were assayed by a homogeneous time-resolved fluorescence (HTRF) technique using a KRAS-G12V/GTP binding assay kit (PerkinElmer).
The experimental procedures were as follows (refer to the kit instructions for detailed test methods): the compounds of the present disclosure were each firstly dissolved in DMSO at a concentration of 20 mM, and then diluted in an equal gradient with a buffer in the kit, so that the final concentrations of the test compounds in the reaction system were in a range of 0.02-5000 nM, and the final concentration of DMSO was 0.5%. 5 μL of each compound was incubated with 5 μL of 1× Human KRAS G12V 6His-tagged (PerkinElmer), 5 µL of 1×6His Eu Cryptate Antibody (PerkinElmer), and 5 μL of 1×GTP Red reagent (PerkinElmer) in a 384-well plate (Greiner) at 25° C. for 1 h. After the incubation was completed, the fluorescence intensity of each well was measured at the excitation wavelength of 337 nm and the emission wavelengths of 620 nm and 665 nm with an EnVision microplate reader (PerkinElmer) in the HTRF mode, and Ratio values were calculated using the formula: Ratio=(665 nm/620 nm)×10^4. The inhibition rates of the compounds at each concentration were calculated by comparing the fluorescence intensity ratio with that of the control group. Then non-linear curve fittings for logarithmic concentration-inhibition rate were performed using the GraphPad Prism 8 analysis software, and the IC50 values of the compounds were obtained (Table 3).

[1] = target: T2, KRAS G12V protein in SW900 cells (Homo sapiens, UniProt P01116, G12V); assay: KRAS degradation assay (Western Blot) in SW900 cells; format: cell-based; conditions: 24 h
T2 construct: endogenous in cells; host or cells: SW900
Method in brief: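 Compounds were added at final concentrations of 0.03–3000 nM (0.25% DMSO) to overnight-plated cells and left for 24 h. Lysates, equalised by BCA, were immunoblotted for KRAS and β-actin, and DC50 and Dmax were derived from normalised band intensities relative to control.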

[2] = test system: KRAS G12D mutant human metastatic pancreatic cancer cell AsPc-1; assay: 3D cell proliferation inhibition assay, AsPc-1; format: cell-based; conditions: ASPC1, 168 h, 3D culture, 7 days, CTG
Method in brief: (§1)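 Seven-day 3D growth at 37 °C in low-adsorption wells, 5×10^2 cells/well except MKN1 (1×10^3), final compound range 10000–0.026 nM in 0.2% DMSO. CTG luminescence read-out; percent inhibition set against DMSO and medium-only wells, IC50 by curve fitting.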

[3] = test system: KRAS G12V mutant human lung squamous carcinoma cell SW900; assay: 3D cell proliferation inhibition assay, SW900; format: cell-based; conditions: SW900, 168 h, 3D culture, 7 days, CTG
[4] = test system: KRAS G12V mutant human colorectal cancer cell SW620; assay: 3D cell proliferation inhibition assay, SW620; format: cell-based; conditions: SW-620, 168 h, 3D culture, 7 days, CTG
Method in brief: as §1

[5] = test system: KRAS WT human gastric cancer cell MKN1; assay: 3D cell proliferation inhibition assay, MKN1; format: cell-based; conditions: MKN-1, 168 h, 3D culture, 7 days, CTG
Method in brief: as §1

T1 sequence (P01116 1-188 isoform P01116-2 G12V): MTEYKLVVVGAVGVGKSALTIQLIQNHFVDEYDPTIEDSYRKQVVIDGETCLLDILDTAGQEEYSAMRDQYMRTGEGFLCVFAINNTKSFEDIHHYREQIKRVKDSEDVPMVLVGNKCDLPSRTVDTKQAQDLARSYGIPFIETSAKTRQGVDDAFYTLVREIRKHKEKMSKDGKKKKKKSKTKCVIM
T2 sequence (P01116 1-188 isoform P01116-2 G12V): as above

Row | Compound | IC50 (Human KRAS G12V) | DC50 [1] | Dmax [1] | also measured
1 | C#Cc1c(F)ccc2cc(O)cc(-c3ncc4c(N5CC6CCC(C5)N6)nc(OC[C@@]56CCCN5C[C@H](F)C6)nc4c3F)c12 [MRTX1133] | – | – | – | specificity for KRAS-G12D mutant cells over wild-type tumor cells (KRAS-G12D mutant cells): more than 1000 times
2 | C#Cc1c(F)ccc2cc(O)cc(-c3ncc4c(N5CCC[C@@](C)(O)C5)nc(OCC5(CN6CCC7(CC6)CCN(C(=O)c6ccc(Cl)c(N8CCC(=O)NC8=O)c6)CC7)CC5)nc4c3F)c12 [Example 16, (R)-1-(2-chloro-5-(9-((1-(((7-(8-ethynyl-7-fluoro-3-hydroxynaphthalen-1-yl)-8-fluoro-4-(3-hydroxy-3-methylpiperidin-1-yl)pyrido[4,3-d]pyrimidin-2-yl)oxy)methyl)cyclopropyl)methyl)-3,9-diazaspiro[5.5]undecane-3-carbonyl)phenyl)dihydropyrimidine-2,4(1H,3H)-dione] | ≤ 500 nM | – | – | –
3 | C#Cc1c(F)ccc2cc(O)cc(-c3ncc4c(N5CCC[C@@](C)(O)C5)nc(OCC5(CN6CCN(C(=O)c7ccc(Cl)c(N8CCC(=O)NC8=O)c7)CC6)CC5)nc4c3F)c12 [Example 15, (R)-1-(2-chloro-5-(4-((1-(((7-(8-ethynyl-7-fluoro-3-hydroxynaphthalen-1-yl)-8-fluoro-4-(3-hydroxy-3-methylpiperidin-1-yl)pyrido[4,3-d]pyrimidin-2-yl)oxy)methyl)cyclopropyl)methyl)piperazine-1-carbonyl)phenyl)dihydropyrimidine-2,4(1H,3H)-dione] | ≤ 500 nM | – | – | –
4 | C#Cc1c(F)ccc2cc(O)cc(-c3ncc4c(N(C)C5CC5)nc(OCC5(CN6CCN(CC7CCC8(CC7)CCN(C(=O)c7ccc(OC)c(N9CCC(=O)NC9=O)c7)CC8)CC6)CC5)nc4c3F)c12 [Example 30, 1-(5-(9-((4-((1-(((4-(cyclopropyl(methyl)amino)-7-(8-ethynyl-7-fluoro-3-hydroxynaphthalen-1-yl)-8-fluoropyrido[4,3-d]pyrimidin-2-yl)oxy)methyl)cyclopropyl)methyl)piperazin-1-yl)methyl)-3-azaspiroundecane-3-carbonyl)-2-methoxyphenyl)dihydropyrimidine-2,4(1H,3H)-dione] | 500 to 1000 nM | ≤ 50 nM | 50 to 80% | –

The next lines start with results.

Row | IC50 (Human KRAS G12V) | DC50 [1] | Dmax [1] | Compound | also measured
5 | ≤ 500 nM | ≤ 50 nM | 80 to 100% | C#Cc1cccc2cc(O)cc(-c3ncc4c(N5CCC[C@@](C)(O)C5)nc(OCC5(CN6CCN(CC7CCC8(CC7)CCN(C(=O)c7ccc(OC)c(N9CCC(=O)NC9=O)c7)CC8)CC6)CC5)nc4c3F)c12 [Example 29, (R)-1-(5-(9-((4-((1-(((7-(8-ethynyl-3-hydroxynaphthalen-1-yl)-8-fluoro-4-(3-hydroxy-3-methylpiperidin-1-yl)pyrido[4,3-d]pyrimidin-2-yl)oxy)methyl)cyclopropyl)methyl)piperazin-1-yl)methyl)-3-azaspiro[5.5]undecane-3-carbonyl)-2-methoxyphenyl)dihydropyrimidine-2,4(1H,3H)-dione] | IC50 [2]: ≤ 50 nM; IC50 [3]: ≤ 50 nM; IC50 [4]: 4.46 nM; IC50 [5]: ≤ 50 nM
6 | 500 to 1000 nM | ≤ 50 nM | 80 to 100% | Cc1ccc(C(=O)N2CCC3(CCC(CN4CCN(CC5(COc6nc(N7CCC[C@@](C)(O)C7)c7cnc(-c8cc(O)cc(Cl)c8C8CC8)c(F)c7n6)CC5)CC4)CC3)CC2)cc1N1CCC(=O)NC1=O [Example 40, (R)-1-(5-(9-((4-((1-(((7-(3-chloro-2-cyclopropyl-5-hydroxyphenyl)-8-fluoro-4-(3-hydroxy-3-methylpiperidin-1-yl)pyrido[4,3-d]pyrimidin-2-yl)oxy)methyl)cyclopropyl)methyl)piperazin-1-yl)methyl)-3-azaspiro[5.5]undecane-3-carbonyl)-2-methylphenyl)dihydropyrimidine-2,4(1H,3H)-dione] | –
7 | ≤ 500 nM | ≤ 50 nM | 50 to 80% | C#Cc1c(F)ccc2cc(O)cc(-c3ncc4c(N5CCC[C@@](C)(O)C5)nc(OCC56CC(CN7CCN(CC8CCC9(CC8)CCN(C(=O)c8ccc(C)c(N%10CCC(=O)NC%10=O)c8)CC9)CC7)(C5)C6)nc4c3F)c12 [Example 14, (R)-1-(5-(9-((4-((3-(((7-(8-ethynyl-7-fluoro-3-hydroxynaphthalen-1-yl)-8-fluoro-4-(3-hydroxy-3-methylpiperidin-1-yl)pyrido[4,3-d]pyrimidin-2-yl)oxy)methyl)bicyclo[1.1.1]pent-1-yl)methyl)piperazin-1-yl)methyl)-3-azaspiro[5.5]undecane-3-carbonyl)-2-methylphenyl)dihydropyrimidine-2,4(1H,3H)-dione] | –
